The values below come from ChEMBL document CHEMBL1201862, “PubChem BioAssay data set” (2004).

The target of test [1] is T1, Replicative DNA helicase DnaB (Mycobacterium tuberculosis, UniProt P9WMR3).
T1 sequence (P9WMR3 whole entry): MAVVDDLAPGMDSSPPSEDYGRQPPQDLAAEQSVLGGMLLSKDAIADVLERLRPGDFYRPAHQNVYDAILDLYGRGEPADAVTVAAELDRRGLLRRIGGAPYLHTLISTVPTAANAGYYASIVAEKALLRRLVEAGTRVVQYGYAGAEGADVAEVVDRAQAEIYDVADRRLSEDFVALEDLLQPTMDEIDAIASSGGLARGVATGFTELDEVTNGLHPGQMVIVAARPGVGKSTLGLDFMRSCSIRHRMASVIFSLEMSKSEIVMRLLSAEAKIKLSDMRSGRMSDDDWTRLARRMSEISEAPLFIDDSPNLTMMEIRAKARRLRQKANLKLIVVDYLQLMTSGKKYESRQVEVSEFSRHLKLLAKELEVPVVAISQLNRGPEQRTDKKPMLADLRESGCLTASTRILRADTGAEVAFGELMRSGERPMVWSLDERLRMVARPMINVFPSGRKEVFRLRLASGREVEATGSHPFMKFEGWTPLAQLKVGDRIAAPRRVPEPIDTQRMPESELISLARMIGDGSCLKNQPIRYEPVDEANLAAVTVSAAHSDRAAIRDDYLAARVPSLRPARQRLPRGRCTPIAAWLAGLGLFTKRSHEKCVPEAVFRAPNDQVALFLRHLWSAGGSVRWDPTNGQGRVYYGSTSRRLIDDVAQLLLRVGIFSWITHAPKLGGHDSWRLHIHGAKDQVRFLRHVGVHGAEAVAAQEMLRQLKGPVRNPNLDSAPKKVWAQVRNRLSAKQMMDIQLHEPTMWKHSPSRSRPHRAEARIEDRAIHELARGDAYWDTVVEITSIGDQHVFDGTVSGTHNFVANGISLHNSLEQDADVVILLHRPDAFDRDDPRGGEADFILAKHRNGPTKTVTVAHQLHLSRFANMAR
Description: DnaB intein splicing inhibitors, dose response, biochemical, cell-free fluorescence (AID 449749). In kind it is functional.

In the next test the target is T2, Protein RecA (Mycobacterium tuberculosis, UniProt P9WHJ3).
T2 sequence (P9WHJ3 whole entry): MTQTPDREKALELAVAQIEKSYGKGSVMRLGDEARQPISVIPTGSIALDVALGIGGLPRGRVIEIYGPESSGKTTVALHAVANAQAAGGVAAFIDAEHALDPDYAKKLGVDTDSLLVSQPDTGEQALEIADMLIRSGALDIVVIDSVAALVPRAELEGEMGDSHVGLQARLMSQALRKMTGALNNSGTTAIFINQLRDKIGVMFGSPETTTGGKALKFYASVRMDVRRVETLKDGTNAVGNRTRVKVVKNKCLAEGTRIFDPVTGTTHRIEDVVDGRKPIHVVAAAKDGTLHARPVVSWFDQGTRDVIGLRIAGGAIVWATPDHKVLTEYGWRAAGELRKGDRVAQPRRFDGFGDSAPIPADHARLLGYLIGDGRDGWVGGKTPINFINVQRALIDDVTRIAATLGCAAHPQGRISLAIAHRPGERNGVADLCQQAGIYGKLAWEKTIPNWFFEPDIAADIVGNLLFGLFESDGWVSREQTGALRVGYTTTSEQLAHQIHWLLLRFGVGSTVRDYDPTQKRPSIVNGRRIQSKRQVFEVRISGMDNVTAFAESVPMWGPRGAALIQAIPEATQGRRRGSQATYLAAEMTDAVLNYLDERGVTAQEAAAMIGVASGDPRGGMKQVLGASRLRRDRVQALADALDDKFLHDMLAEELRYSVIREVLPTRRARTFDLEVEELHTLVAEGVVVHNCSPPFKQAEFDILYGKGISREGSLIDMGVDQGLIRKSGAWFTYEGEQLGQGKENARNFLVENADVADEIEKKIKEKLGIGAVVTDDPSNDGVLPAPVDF
In words: Fluorescence Cell-Free Homogeneous Dose Retest to Identify Inhibitors of RecA-Intein Splicing Activity. [Related pubchem assays (depositor defined):AID2097, AID2223, AID489010, AID492950]. In kind it is functional.

For test [2], the target named is T3, Carboxy-terminal domain RNA polymerase II polypeptide A small phosphatase 1 (Homo sapiens, UniProt Q9GZU7).
T3 sequence (Q9GZU7 whole entry): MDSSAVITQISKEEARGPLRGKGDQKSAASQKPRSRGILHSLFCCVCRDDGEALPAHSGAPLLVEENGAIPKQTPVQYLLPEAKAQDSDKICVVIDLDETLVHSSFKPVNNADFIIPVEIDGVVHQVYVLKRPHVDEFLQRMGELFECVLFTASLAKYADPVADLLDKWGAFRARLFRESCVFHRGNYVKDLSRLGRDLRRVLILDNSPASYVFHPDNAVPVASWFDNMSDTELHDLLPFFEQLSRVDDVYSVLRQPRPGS
In words: CTDSP1 inhibitors, concentration-response, biochemical, absorbance readout, ultra-high-throughput screen actives (AID 540297). The format is functional.

Test [3] has as its target T4, Small ubiquitin-related modifier 1 (Homo sapiens, UniProt P63165). In words: SUMO1 protein interaction blockers, potency – biochemical, fluorescence polarization, uHTS hits, dose response (AID 624382). The format is functional. Particulars: read-out: IC50_Mean. A general note: Fluorescence polarisation rises when a labelled molecule tumbles more slowly, as on binding a larger partner.

Test [4] addresses T4, Small ubiquitin-related modifier 1. In words: SUMO1 protein-protein binding blockers, potency – biochemical, FRET, dose response (AID 624383). The format is functional. The settings on record: read-out: IC50_Mean.
The next test addresses T5, Caspase-6 (Homo sapiens, UniProt P55212).
T5 sequence (P55212 whole entry): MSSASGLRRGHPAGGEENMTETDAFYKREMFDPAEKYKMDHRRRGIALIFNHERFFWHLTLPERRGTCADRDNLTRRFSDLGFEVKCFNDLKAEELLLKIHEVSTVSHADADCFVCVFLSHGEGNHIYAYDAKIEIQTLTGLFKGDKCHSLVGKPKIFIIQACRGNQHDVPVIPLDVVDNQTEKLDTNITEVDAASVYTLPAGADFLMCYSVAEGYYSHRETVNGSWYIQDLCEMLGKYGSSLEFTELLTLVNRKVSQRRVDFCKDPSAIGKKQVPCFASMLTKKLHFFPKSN
In words: inhibition of CASP6 peptide cleavage – biochemical, VEID-R110 fluorescence, cherry-pick, dose response (AID 720632).

The target of test [5] is T6, Sentrin-specific protease 8 (Homo sapiens, UniProt Q96LD8).
T6 sequence (Q96LD8 whole entry): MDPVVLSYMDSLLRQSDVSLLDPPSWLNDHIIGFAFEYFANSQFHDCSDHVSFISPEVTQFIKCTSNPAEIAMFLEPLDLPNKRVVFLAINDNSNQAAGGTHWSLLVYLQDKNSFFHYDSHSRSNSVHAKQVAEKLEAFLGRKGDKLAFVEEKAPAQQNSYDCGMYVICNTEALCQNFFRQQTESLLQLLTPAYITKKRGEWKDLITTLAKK
The format is functional.

Test [6] has as its target T6, Sentrin-specific protease 8. The format is functional. The source holds these as a separate data set.
The next test deals with Beta-galactosidase (Escherichia coli, UniProt Q8VNN2). Description: Dose response counterscreen for EBI2 assay utilizing the enzyme, b-galactosidase. The format is functional. A general note: The purpose of a counterscreen is to sort out artefacts and off-target activity.
The target of test [7] is T7, Corticotropin-releasing factor receptor 2/Corticotropin-releasing factor-binding protein (Homo sapiens, UniProt P24387+Q13324).
T7 sequence (Q13324 whole entry): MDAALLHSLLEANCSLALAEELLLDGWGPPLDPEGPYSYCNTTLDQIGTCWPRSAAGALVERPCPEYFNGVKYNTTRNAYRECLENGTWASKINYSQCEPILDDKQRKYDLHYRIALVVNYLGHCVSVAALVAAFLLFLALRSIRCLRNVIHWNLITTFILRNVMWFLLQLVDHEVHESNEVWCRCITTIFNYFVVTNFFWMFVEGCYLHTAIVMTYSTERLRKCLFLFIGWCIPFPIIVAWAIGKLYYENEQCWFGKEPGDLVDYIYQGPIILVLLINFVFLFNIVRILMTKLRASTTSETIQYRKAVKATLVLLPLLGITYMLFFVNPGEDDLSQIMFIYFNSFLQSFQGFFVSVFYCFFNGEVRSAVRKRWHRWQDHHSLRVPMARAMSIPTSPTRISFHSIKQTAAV
T7 sequence (P24387 whole entry): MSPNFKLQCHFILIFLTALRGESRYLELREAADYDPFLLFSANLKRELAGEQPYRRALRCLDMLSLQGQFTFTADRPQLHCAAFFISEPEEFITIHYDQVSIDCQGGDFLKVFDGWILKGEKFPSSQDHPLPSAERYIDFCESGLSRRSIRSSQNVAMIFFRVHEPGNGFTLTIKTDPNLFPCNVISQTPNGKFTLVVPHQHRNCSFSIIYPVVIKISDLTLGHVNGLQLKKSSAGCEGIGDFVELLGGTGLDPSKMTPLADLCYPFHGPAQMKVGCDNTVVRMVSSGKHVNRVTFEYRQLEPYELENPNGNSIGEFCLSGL
Description: Dose Response confirmation of uHTS hits for small molecule antagonists of the CRF-binding protein and CRF-R2 receptor complex. In kind it is functional. Particulars: read-out: IC50_Mean.

For test [8], the target named is T7, Corticotropin-releasing factor receptor 2/Corticotropin-releasing factor-binding protein. Description: activators of CRF receptor 2 with binding protein – uHTS hits, confirmation (AID 602473). In kind it is functional. Particulars: read-out: EC50_Mean.
Test [9] deals with SWI/SNF-related matrix-associated actin-dependent regulator of chromatin subfamily A member 2 (Homo sapiens, UniProt P51531). In words: Luminescence-based cell-based high throughput dose response assay to identify activators of the function of SWI/SNF related, matrix associated, actin dependent regulator of chromatin, subfamily a, member 2 (SMARCA2, BRM). The format is functional.

The nature of test [10]: Counterscreen for activators of the function of SWI/SNF related, matrix associated, actin dependent regulator of chromatin, subfamily a, member 2 (SMARCA2, BRM): Luminescence-based cell-based high throughput dose response assay to identify non-selective compounds using the VP16 reporter assay. The format is functional.
Test [11] concerns the target T8, Histone-lysine N-methyltransferase NSD2 (Homo sapiens, UniProt O96028).
T8 sequence (O96028 whole entry): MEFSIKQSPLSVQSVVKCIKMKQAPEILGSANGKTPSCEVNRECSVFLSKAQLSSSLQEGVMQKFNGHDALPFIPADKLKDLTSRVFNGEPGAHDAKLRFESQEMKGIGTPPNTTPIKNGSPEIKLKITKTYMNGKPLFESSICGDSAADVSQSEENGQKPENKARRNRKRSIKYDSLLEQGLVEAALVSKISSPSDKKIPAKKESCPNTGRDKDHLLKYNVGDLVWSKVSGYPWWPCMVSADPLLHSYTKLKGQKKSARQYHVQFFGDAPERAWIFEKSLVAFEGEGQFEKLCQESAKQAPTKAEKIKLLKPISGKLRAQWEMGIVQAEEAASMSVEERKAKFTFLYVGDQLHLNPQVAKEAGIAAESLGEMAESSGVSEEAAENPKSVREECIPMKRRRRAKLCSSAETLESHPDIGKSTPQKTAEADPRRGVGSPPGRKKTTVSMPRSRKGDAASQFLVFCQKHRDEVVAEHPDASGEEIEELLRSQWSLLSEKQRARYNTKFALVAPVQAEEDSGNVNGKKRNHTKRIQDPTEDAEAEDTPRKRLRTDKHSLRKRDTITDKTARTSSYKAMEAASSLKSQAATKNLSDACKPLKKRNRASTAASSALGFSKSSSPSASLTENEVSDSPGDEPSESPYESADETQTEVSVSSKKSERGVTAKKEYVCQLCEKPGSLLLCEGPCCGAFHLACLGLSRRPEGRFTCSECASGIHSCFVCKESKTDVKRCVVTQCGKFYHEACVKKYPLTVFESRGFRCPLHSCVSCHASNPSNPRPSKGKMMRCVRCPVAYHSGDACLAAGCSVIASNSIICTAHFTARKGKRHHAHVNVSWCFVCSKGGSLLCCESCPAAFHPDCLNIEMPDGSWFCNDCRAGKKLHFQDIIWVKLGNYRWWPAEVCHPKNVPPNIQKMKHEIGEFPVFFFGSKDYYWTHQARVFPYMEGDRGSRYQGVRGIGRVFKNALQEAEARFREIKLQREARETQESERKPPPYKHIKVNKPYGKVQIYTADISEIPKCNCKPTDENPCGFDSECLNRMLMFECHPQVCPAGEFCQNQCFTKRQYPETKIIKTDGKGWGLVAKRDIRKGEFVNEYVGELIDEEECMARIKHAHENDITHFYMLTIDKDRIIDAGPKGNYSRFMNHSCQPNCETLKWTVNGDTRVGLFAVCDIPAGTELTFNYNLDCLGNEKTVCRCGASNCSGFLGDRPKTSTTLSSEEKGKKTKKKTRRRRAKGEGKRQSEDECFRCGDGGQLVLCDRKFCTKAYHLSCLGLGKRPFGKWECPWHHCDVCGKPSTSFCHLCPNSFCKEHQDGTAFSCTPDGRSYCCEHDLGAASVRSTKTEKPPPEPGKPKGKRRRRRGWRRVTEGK
In kind it is biochemical.

The source made the active and inactive calls.

T4 sequence (P63165 whole entry): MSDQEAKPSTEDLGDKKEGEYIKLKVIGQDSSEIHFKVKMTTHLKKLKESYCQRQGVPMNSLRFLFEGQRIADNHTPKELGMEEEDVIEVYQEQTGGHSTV
Beta-galactosidase, sequence (Q8VNN2 whole entry): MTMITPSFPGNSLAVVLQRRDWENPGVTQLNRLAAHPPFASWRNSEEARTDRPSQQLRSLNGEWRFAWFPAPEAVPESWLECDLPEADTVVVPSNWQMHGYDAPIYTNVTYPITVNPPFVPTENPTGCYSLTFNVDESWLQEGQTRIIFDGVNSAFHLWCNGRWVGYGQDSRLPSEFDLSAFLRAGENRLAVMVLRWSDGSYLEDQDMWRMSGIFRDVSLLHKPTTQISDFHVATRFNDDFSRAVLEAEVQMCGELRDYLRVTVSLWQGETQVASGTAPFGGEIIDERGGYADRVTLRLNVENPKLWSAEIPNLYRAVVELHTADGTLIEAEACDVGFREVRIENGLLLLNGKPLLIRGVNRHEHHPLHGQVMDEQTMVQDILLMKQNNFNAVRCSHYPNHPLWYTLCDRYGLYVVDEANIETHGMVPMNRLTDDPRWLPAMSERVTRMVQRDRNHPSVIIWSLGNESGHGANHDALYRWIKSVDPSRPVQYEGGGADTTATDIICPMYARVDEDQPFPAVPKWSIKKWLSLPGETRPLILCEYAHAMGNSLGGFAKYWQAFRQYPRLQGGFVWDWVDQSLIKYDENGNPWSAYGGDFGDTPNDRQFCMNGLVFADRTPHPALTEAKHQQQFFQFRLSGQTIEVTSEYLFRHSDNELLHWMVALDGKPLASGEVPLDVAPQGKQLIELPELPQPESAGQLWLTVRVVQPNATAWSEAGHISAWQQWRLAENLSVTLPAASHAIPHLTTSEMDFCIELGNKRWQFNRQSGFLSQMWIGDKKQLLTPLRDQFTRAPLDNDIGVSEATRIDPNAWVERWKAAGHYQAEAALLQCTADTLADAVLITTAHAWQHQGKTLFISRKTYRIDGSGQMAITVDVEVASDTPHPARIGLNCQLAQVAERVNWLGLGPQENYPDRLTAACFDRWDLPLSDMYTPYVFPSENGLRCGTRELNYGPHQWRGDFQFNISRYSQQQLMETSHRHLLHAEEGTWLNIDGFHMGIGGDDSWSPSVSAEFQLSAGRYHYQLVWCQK
SWI/SNF-related matrix-associated actin-dependent regulator of chromatin subfamily A member 2, sequence (P51531 whole entry): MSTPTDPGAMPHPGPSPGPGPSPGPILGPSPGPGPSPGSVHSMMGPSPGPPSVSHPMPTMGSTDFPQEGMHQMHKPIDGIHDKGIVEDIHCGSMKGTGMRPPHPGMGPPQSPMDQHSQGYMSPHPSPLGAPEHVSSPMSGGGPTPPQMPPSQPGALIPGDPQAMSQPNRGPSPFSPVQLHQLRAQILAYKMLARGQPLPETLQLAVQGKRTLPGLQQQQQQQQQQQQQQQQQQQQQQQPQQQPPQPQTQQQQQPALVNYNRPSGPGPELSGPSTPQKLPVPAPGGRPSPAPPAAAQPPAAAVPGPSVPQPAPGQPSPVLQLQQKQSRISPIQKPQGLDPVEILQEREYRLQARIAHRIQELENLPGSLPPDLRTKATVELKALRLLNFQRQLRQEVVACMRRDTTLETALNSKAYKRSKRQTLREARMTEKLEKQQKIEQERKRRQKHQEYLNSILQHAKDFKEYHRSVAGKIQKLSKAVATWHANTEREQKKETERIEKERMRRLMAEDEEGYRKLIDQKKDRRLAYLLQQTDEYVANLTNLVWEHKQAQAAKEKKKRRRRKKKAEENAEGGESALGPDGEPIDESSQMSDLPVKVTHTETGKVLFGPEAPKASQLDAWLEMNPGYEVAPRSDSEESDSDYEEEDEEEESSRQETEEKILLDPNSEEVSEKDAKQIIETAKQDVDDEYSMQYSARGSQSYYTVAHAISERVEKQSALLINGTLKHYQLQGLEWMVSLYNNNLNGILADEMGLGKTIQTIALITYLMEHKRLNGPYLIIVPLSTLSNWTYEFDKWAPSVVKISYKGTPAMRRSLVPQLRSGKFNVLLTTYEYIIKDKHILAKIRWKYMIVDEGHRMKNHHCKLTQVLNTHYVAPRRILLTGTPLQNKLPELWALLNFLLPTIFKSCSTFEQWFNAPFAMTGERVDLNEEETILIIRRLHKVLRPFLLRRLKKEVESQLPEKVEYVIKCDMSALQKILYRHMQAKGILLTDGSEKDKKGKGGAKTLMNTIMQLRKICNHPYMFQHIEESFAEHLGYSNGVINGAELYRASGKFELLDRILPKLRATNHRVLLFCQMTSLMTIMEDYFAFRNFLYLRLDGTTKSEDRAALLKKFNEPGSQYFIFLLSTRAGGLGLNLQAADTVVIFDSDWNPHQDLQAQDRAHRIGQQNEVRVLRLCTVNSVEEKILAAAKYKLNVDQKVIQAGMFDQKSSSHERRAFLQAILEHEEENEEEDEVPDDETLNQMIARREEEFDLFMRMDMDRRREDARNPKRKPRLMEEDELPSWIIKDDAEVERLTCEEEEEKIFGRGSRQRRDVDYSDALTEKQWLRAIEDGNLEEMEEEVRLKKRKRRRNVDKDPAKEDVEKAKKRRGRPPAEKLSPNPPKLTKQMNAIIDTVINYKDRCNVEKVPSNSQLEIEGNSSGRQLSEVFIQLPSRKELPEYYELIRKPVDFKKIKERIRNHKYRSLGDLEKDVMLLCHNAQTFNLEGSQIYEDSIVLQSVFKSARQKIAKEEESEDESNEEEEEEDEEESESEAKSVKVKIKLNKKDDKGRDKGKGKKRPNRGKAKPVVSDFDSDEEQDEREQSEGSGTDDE

A word on the AC50: it is the concentration at which the activity in the assay is half-maximal. For the compound `CC1=NN(c2ccc(Cl)c(C(=O)O)c2)C(=O)C1`, the AC50 is 1.88 µM (active) in test [1] and 1.16 µM (active) on Caspase-6. Further, the EC50 at Protein RecA was 2.15 µM (active). Besides, the IC50 in test [2] was 8.96 µM (active); in test [3] it was > 66.6 µM (inactive); in test [4], 9.17 µM (active).

In the case of `O=C(COc1ccccc1)N1CCc2ccccc2C1`, the IC50 in test [5] was 93.6 µM (inactive); in [6] it was 23.7 µM (active).

On to `CCOC(=O)N1CCN(C(=O)/C=C/c2ccc(OC)cc2)CC1`, for which the IC50 on Beta-galactosidase was > 80 µM (inactive).

For the compound `CC(=O)N1CCOc2ccc(S(=O)(=O)N3CCC(C(=O)NCc4ccc(C)cc4)CC3)cc21`, the IC50 in [7] is > 47.1 µM (inactive); on Beta-galactosidase it was > 80 µM (inactive). Further, the EC50 in [8] was > 53 µM (inactive).

Consider `O=[N+]([O-])c1ccc(N(CCO)CCO)c2c1no[n+]2[O-]`, for which the EC50 in test [9] and in test [10] was > 91.2 µM (inactive) throughout. For the same compound, in test [11], the AC50 was 4.45 µM (active).

Take `CC(C)CSc1nnc(-c2ccco2)n1C`: the EC50 in test [9] and in test [10] was > 91.2 µM (inactive) in each case.
